Data: US6602906B1 (priority 2002, dated 2003)
Like-named read-outs stand apart in the source and are kept apart here.

Legend:
[1] = Storage stability of the 5.0 wt % topical solution; type: physicochemical
Description: For topical use, a homogeneous solution in accordance with the present invention containing 5.0 wt % 5,6-O-isopropylidene L-ascorbic acid was prepared by mixing the ingredients shown in TABLE 1. The ingredients were added in the order given and in the given amounts. The solution was prepared in a glass container with continuous stirring. After the addition of the zinc sulfate, and again after the addition of the glycerin, the solution was heated to approximately 60° C. The heating increased the solubility of the 2-phenoxyethanol and of the 5,6-O-isopropylidene L-ascorbic acid. The solution was then filtered through a fine plastic mesh, yielding a clear, colorless to very pale yellow liquid. The 5,6-O-isopropylidene L-ascorbic acid in this solution will retain its potency for approximately six months if the solution is stored at room temperature in a bottle that is impervious to ultraviolet light. In darkness at 10° C., 5,6-O-isopropylidene L-ascorbic acid in solution will remain stable and potent for approximately 18 months.

inflamed skin = inflamed skin treated with acetone; cited from earlier work
[2] = in the human; cited from earlier work
mouse skin = conditions: topical application, (hairless) mice; cited from earlier work
skin of humans = conditions: topical application; cited from earlier work
pig skin = conditions: applied topically prior to UVB; cited from earlier work
human skin = conditions: applied topically prior to UVB; cited from earlier work
[3] = neutral pH; cited from earlier work
[4] = 20 wt %, pH 2.0; cited from earlier work
mice = conditions: topical; cited from earlier work
[5] = cited from earlier work

For `CC1(C)OC[C@@H]([C@H]2OC(=O)C(O)=C2O)O1` [5,6-O-isopropylidene L-ascorbic acid], the “time the compound in solution retains its potency” value ([1]; 5.0 wt % solution of TABLE 1, room temperature, bottle impervious to ultraviolet light) was “approximately six” and the “time the compound in solution remains stable and potent” value ([1]; solution, in darkness at 10° C.) was “approximately 18 months”.

In the case of `CC(C)=O` [acetone], the erythema and edema (inflamed skin) is listed as “diminished” and the “presence of mononuclear cells (indicator of inflammation)” value (inflamed skin) is listed as “significant decrease”.

For `O=C1O[C@H]([C@@H](O)CO)C(O)=C1O` [ascorbic acid], the half-life [2] is given as “about 20 days”, the “photoaging changes / protection against photoaging in mouse skin” value (mouse skin) is given as “decreased” and the “photoaging changes in the skin” value (skin of humans) is given as “decreased”. The “erythema and sunburn after UVB irradiation” value (pig skin) was “erythema and sunburn were prevented”, the “erythema and sunburn after UVB irradiation” value (human skin) was “erythema and sunburn were prevented” and the “stability in aqueous solutions” value [3] was “very unstable”. For the same compound, the skin irritation [4] was “highly irritating to the skin”, the “protection against UV-induced immunosuppression and tolerance to contact antigen” value (mice) was “protect against UV-induced immunosuppression” and the pKa (pKa of the molecule) was […].

In the case of `CCCCCCCCCCCCCCCC(=O)OC[C@H](O)[C@H]1OC(=O)C(O)=C1O` [ascorbyl-6-palmitate, Ascorbyl-6-palmitate], the “skin levels of ascorbic acid” value ([5]; topical serum containing 10 wt %) is listed as “no significant increase” and the “photoaging changes / protection against photoaging in mouse skin” value (mouse skin) is listed as “failed to demonstrate protection against photoaging”.

For `O=C1O[C@H]([C@@H](O)CO)C([O-])=C1OP(=O)([O-])[O-].O=C1O[C@H]([C@@H](O)CO)C([O-])=C1OP(=O)([O-])[O-].[Mg+2].[Mg+2].[Mg+2]` [magnesium ascorbyl 2-phosphate], the “skin levels of ascorbic acid” value ([5]; topical serum containing 13 wt %) is given as “failed to increase skin levels of ascorbic acid”.
